Experimental data published in patent publication US11731946B2, “Broad spectrum antivirulence, anti-persistence compounds” (priority 2017, dated 2023).
≈ marks a conversion by molar mass, not a printed value. Where “and” joins values, the source holds several entries; their conditions need not be identical. Identical values can stand only once. Entries after “also recorded” stand apart in the source; their conditions may differ.

Key:
MvfR regulon [1] = assay: Quantification of pyocyanin (OD520nm of chloroform-extracted cultures); assay type: cell-based, P. aeruginosa; conditions: Pseudomonas aeruginosa; for IC50: read-out: IC50 pyocyanin (μM); for activity at 50 µM: read-out: pyocyanin @50 uM (%), compound at 50 uM
MvfR regulon [2] = assay: pqsA gene expression (pqsA-GFP reporter); assay type: cell-based, P. aeruginosa; conditions: Pseudomonas aeruginosa; for activity at 10 µM: read-out: pqsA @10 uM (%), compound at 10 uM
MvfR regulon [3] = assay: LC/MS quantification of HAQs and related molecules in bacterial culture supernatants; assay type: cell-based, P. aeruginosa; conditions: Pseudomonas aeruginosa
MvfR = molecular target: T1, MvfR (Pseudomonas aeruginosa, UniProt Q9I4X0); assay: Surface plasmon resonance (SPR) binding to purified MvfR co-inducer binding domain; parameters: species or system P. aeruginosa
T1 construct: made in house
Method: Compounds identified to interfere with MvfR were confirmed for the direct physical interaction with this protein. Using SPR, the percentage of compound's binding to the purified MvfR protein was analyzed and used to determine the binding parameters (KD, kon and koff)—thus determining the kinetic of interaction with MvfR.
The recombinant MvfR co-inducer binding domain was purified using Ni-NTA chromatography, as previously reported (see e.g., Xiao et al, Microbiology, 2006, 152:1679-1686; Starkey et al, PLoS Pathog. 2014, 10:e1004321; and Kefala et al, Acta. Crystallogr. Sect. F. Struct. Biol. Cryst. Commun. 2012, 68:695-697). The purified protein was immobilized with the amine coupling method at a target level of 5000 RU on Chip. SPR was performed according to previously reported procedures (see e.g., Starkey et al, PLoS Pathog. 2014, 10:e1004321; Maura et al, ACS Chemical Biology, 2017, 12:1435-1443; and Kitao et al, MBIO, in press). […] Table 3 lists the steady-state KD data measured by SPR.

PA14 = assay: Antibiotic tolerance/persister (AT/P) cell formation, meropenem, CFU plating; assay type: cell-based, P. aeruginosa; conditions: 50 μM compound
Method: Wild type (PA14) P. aeruginosa was grown in liquid culture with or without Compound 54 and treated with meropenem according to published procedures (see e.g., Starkey et al, PLoS Pathog. 2014, 10:e1004321). Data are expressed as fraction of original culture surviving antibiotic treatment.
(§1) AT/P efficacy of compounds using CFU plating was assessed by growning over-night, cultures diluted 1:100 in triplicate in fresh LB medium in the presence or absence of inhibitor, and re-grown to an OD600 of 2.0 while shaking under aeration at 37° C. Before the antibiotic treatment, aliquots were plated to obtain reference colony counts. […] At 24-h and 48-h time points, the number of surviving bacteria were assessed by plating. The survival fraction of AT/P cells was calculated by dividing the number of surviving bacteria by the number of live bacteria that were present before the antibiotic treatment (reference datum) and expressed as a mean (±SD) of at least three replicate experiments. Using the same CFU plating assay, the efficacy of all compounds identified will be tested against additional antibiotic classes: b-lactams (ceftazidime, cefepime and imipenem), quinolones (ciprofloxacin, moxifloxacin, and levofloxacin), and aminoglycosides (gentamicin and tobramycicn).

[4] = Pharmacokinetics in mouse plasma and lung after single subcutaneous injection; assay type: in vivo, mice; conditions: for stability in vivo (serum concentration): 10 mg/kg subcutaneous, over 24 h
Method: FIGS. 1F-1G show pharmacokinetics measured in mouse plasma (FIG. 1F) and lung (FIG. 1G) following a single subcutaneous injection of Compounds 53, 54, or 72 at 10 mg/kg.

[5] = system: Caco2 intestinal epithelial cells; assay: Survival of Caco2 cells after compound exposure; assay type: cell-based; conditions: 25 μM, 3 hours exposure
Solubility = assay type: physicochemical; conditions: initial solubility studies; listed as D88
Text: FIGS. 6A-6E show pharmacological properties of a representative group of MvfR inhibitors.

[6] = system: Pseudomonas aeruginosa MDR clinical isolates; assay: Pyocyanin production in MDR clinical isolates; assay type: cell-based; conditions: 10 μM; listed as D88
Method: Percentage of pyocyanin production is presented in presence of 10 μM of D57 or D88 compounds. Tukey's multiple comparisons test p<0.0001.
Pyocyanin levels were determined by measuring OD520nm of chloroform-extracted cultures.

[7] = system: P. aeruginosa MDR clinical isolates; assay: AT/P cell formation in MDR clinical isolates; assay type: cell-based; conditions: 10 μM; MDR clinical isolates incl. mucoid strain from CF patients
Method: (§2) Statistical significance to the control was assessed using one-way ANOVA+Dunnett's post-test. P<0.001-0.005.
as §1

PA clinical isolate PA14 = assay: Biofilm formation (microtiter biofilm assay); assay type: cell-based, P. aeruginosa; conditions: 10 μM
Method: as §2
Inhibition of biofilm formation was assessed by quantifying initiation of biofilm formation via assessment of surface adhesion of PA using the microtiter biofilm assay as described in O'Toole, G A. J. Vis. Exp. 2011, Microtiter Dish Biofilm Formation Assay. Using single optimized agents, this assay allowed for various concentrations of each compound and several incubation times to be investigated in an HTS manner.

Acenitobacter baumanii = assay: Activity against other bacterial pathogens (preliminary); assay type: cell-based
[8] = system: adhesive intestinal E. coli; assay: as above; assay type: cell-based
[9] = mean KD value, SPR, mean over the compounds named

T1 sequence (Q9I4X0 91-332): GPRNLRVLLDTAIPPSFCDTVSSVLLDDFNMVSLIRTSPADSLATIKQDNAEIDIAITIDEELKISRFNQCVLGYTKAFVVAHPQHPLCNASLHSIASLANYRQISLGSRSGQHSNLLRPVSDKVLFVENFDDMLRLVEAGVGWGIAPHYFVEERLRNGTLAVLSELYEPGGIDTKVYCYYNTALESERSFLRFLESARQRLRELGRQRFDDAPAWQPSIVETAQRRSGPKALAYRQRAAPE

N#Cc1ccc(NC(=O)CC(=O)Nc2ccc(Cl)cc2)cc1 [Compound 53]
IC50 (MvfR regulon [1]): 2.4 µM | activity at 50 µM (MvfR regulon [1]): 6.23% | IC50 (MvfR regulon [2]; read-out: IC50 pqsA (μM)): 1.25 µM | activity at 10 µM (MvfR regulon [2]): 1.55% | activity at 50 µM (MvfR regulon [2]; read-out: pqsA @50 uM (%), compound at 50 uM): 7.97% | IC50 (MvfR regulon [3]; PA14, read-out: IC50 2-AA (μM)): 5.6 µM | IC50 (MvfR regulon [3]; PA14, read-out: IC50 DHQ (μM)): 9.1 µM | IC50 (MvfR regulon [3]; PA14, read-out: IC50 HHQ (μM)): 10.3 µM | IC50 (MvfR regulon [3]; PA14, read-out: IC50 PQS (μM)): 8.3 µM | activity at 50 µM (MvfR regulon [3]; read-out: 2-AA @50 uM): 5.87% | activity at 50 µM (MvfR regulon [3]; read-out: AA @50 uM): 739% | activity at 50 µM (MvfR regulon [3]; read-out: DHQ @50 uM): 10.3% | activity at 50 µM (MvfR regulon [3]; read-out: HHQ @50 uM (%)): 1.63% | activity at 50 µM (MvfR regulon [3]; read-out: HQNO @50 uM (%)): 13.9% | IC50 (MvfR regulon [3]; read-out: IC50 AA (increase; μM)): 14.5 µM | IC50 (MvfR regulon [3]; read-out: IC50 HQNO (μM)): 7.3 µM | activity at 50 µM (MvfR regulon [3]; read-out: PQS @50 uM (%)): 8.37% | binding to MvfR (in words) (MvfR; FIG. 1B): high affinity | Signal Intensity Rmax (MvfR; SPR): 26.52 | binding intensity relative to parent Compound 1 (MvfR; SPR): 40 times | Kd (MvfR; Steady State Binding Affinity KD (μM), SPR, steady state): 0.244 µM | Kd (MvfR; Steady State Binding Affinity KD [M], SPR, steady state): 0.244 µM | Kd (MvfR; [9]): ~0.25 µM and 0.25 µM | inhibition of persistence (PA14): inhibit persistence | stability in vivo (serum concentration) [4]: stable in vivo | stability in vivo (serum concentration) ([4]; listed as D41): highly stable in vivo | pharmacokinetics (in words) ([4]; mouse, in vivo): promising pharmacokinetics | toxicity to Caco2 (survival) [5]: not toxic

N#Cc1ccc(NC(=O)C(F)C(=O)Nc2ccc(Oc3ccccc3)cc2)cc1 (stereo not shown) [Compound 103]
IC50 (MvfR regulon [1]): 0.95 µM | activity at 1 µM (MvfR regulon [1]; read-out: pyocyanin @1 uM (%), compound at 1 uM): 28.1% | activity at 10 µM (MvfR regulon [1]; read-out: pyocyanin @10 uM (%), compound at 10 uM): 4.4% | activity at 50 µM (MvfR regulon [1]): 5.58% | activity at 10 µM (MvfR regulon [2]): 1.95% | Kd (MvfR; [9]): 0.25 µM | solubility (Solubility): 0.190 mg/mL (≈ 488 µM) | activity on pyocyanin production in MDR clinical isolates [6]: highly active; also recorded: confirmed | activity against antibiotic tolerant/persister cell formation [7]: highly active | activity against biofilm formation (PA clinical isolate PA14): highly active | potency against Acenitobacter baumanii (Acenitobacter baumanii): potent | potency against adhesive intestinal E. coli [8]: potent
